Measurements from patent US9439854B2, “Liquid pharmaceutical formulations of palonosetron” (Helsinn Healthcare SA, priority 2003, dated 2016).
Values belong to the molecule of their own block, whether it stands above or below them.

Columns and labels:
[1] = biological target: T1, 5-HT3 receptor (Homo sapiens, UniProt P46098); settings: clinical investigations; cited from earlier work
T1 sequence (P46098 24-478): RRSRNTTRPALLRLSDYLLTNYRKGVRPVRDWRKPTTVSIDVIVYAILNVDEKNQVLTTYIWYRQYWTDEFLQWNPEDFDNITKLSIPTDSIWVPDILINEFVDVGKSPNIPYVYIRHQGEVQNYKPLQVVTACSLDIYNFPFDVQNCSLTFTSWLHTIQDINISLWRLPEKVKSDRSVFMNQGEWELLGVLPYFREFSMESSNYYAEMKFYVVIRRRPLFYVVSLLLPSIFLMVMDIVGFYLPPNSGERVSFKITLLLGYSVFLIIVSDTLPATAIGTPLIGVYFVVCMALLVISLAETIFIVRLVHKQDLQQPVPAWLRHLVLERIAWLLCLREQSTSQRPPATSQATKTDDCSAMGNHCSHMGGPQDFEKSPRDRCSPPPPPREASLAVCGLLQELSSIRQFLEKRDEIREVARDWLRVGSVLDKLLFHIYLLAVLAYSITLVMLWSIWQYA

[2] = clinical investigations; cited from earlier work
[3] = physical and chemical stability of palonosetron HCl admixed with dexamethasone; assay type: physicochemical; settings: palonosetron HCl 5 or 25 μg/mL with dexamethasone 0.2, 0.4 or 0.33 mg/mL in 5% dextrose or 0.9% sodium chloride; 14 days at 4° C., 48 hours at 23° C.
Procedure: The physical and chemical stability of palonosetron HCl 0.25 mg admixed with dexamethasone (as sodium phosphate) 10 mg or 20 mg in 5% dextrose injection or 0.9% sodium chloride injection in polyvinyl chloride (PVC) minibags, and also admixed with dexamethasone (as sodium phosphate) 3.3 mg in 5% dextrose injection or 0.9% sodium chloride injection in polypropylene syringes at 4° C. in the dark for 14 days and at 23° C. exposed to normal laboratory fluorescent light over 48 hours, was studied. Test samples of palonosetron HCl 5 μg/mL with dexamethasone (as sodium phosphate) 0.2 mg/mL and also 0.4 mg/mL were prepared in polyvinyl chloride (PVC) minibags of each infusion solution. Additionally, palonosetron HCl 25 μg/mL with dexamethasone (as sodium phosphate) 0.33 mg/mL in each infusion solution were prepared as 10 mL of test solution in 20-mL polypropylene syringes. […] Physical stability was assessed using visual observation in normal room light and using a high-intensity monodirectional light beam. In addition, turbidity and particle content were measured electronically. Chemical stability of the drug was evaluated by using a stability-indicating high performance liquid chromatographic (HPLC) analytical technique.

[4] = effect of pH on stability of formulations containing palonosetron hydrochloride at 80° C.; assay type: physicochemical; settings: pH 2.0, 5.0, 7.4 and 10.0 tested
Procedure: A study was conducted to determine the effect of pH on formulations containing palonosetron hydrochloride, measuring the stability at 80° C. at pH 2.0, 5.0, 7.4, and 10.0.

[5] = formulation optimization study (concentration ranges, 24 lots); assay type: physicochemical; settings: 0.05 mg/mL to 5.0 mg/mL; citrate buffer 0 to 80 mM; EDTA 0 to 0.10%
Procedure: A formulation optimization study was performed using an experimental design software. Twenty-four lots of drug product were analyzed to investigate the appropriate concentration ranges for palonosetron hydrochloride (0.05 mg/mL to 5.0 mg/mL), citrate buffer (0 to 80 mM) and EDTA (0 to 0.10%).

[6] = physical and chemical stability of palonosetron HCl in infusion solutions (without dexamethasone); assay type: physicochemical; settings: 5 and 30 μg/mL in 4 infusion solutions, PVC bags; 14 days at 4° C. in the dark, 48 hours at 23° C. under fluorescent light
Procedure: The physical and chemical stability of palonosetron HCl was studies in concentrations of 5 μg/mL and 30 μg/mL in 5% dextrose injection, 0.9% sodium chloride injection, 5% dextrose in 0.45% sodium chloride injection, and dextrose 5% in lactated Ringer's injection. The admixtures were evaluated over 14 days at 4° C. in the dark and for 48 hours at 23° C. under fluorescent light. Test samples of palonosetron HCl were prepared in polyvinyl chloride (PVC) bags of the infusion solutions at concentrations of 5 and 30 μg/mL. Evaluations for physical and chemical stability were performed on samples taken initially and after 1, 3, 5, 7, and 14 days of storage at 4° C. and after 1, 4, 24, and 48 hours at 23° C. Physical stability was assessed using visual observation in normal room light and using a high-intensity monodirectional light beam. In addition, turbidity and particle content were measured electronically. Chemical stability of the drug was evaluated by using a stability-indicating high performance liquid chromatographic (HPLC) analytical technique.

SMILES: O=C1c2cccc3c2[C@H](CCC3)CN1[C@@H]1CN2CCC1CC2 [palonosetron, (3aS)-2,3,3a,4,5,6-Hexahydro-2-[(S)-1-Azabicyclo[2.2.2]oct-3-yl]2,3,3a,4,5,6-hexahydro-1-oxo-1Hbenz[de]isoquinoline]
- potency relative to most existing 5-HT3 receptor antagonists [1]: an order of magnitude more potent than most existing 5-HT3 receptor antagonists
- reduction of delayed-onset nausea induced by chemotherapeutic agents [1]: effective to reduce delayed-onset nausea
- half-life [2]: about 40 hours

- chemical stability (loss of drug, HPLC) [3]: little or no loss
SMILES: C[C@@H]1C[C@H]2[C@@H]3CCC4=CC(=O)C=C[C@]4(C)[C@@]3(F)[C@@H](O)C[C@]2(C)[C@@]1(O)C(=O)CO [dexamethasone]

- pH of greatest stability [4]: most stable at pH 5.0
- chemical stability (loss of drug, HPLC) [6]: little or no loss
- physical stability (visual, turbidity, particle content) [6]: physically stable throughout the study
SMILES: Cl.O=C1c2cccc3c2[C@H](CCC3)CN1[C@@H]1CN2CCC1CC2 [palonosetron hydrochloride]
- chemical stability as a function of palonosetron concentration [5]: greatest stability seen at the lowest palonosetron concentrations
- physical compatibility (visual, turbidity, particle content) [3]: physically compatible throughout the study
